Drawing on patent US6462043B1 (dated 2002), this text covers melting point for two compounds.

Turning to `CCCOCCCN1CN(C)/C(=N/[N+](=O)[O-])N(Cc2ccc(Cl)nc2)C1`, the melting point fell in the range of 70 to 72 °C.

`CN/C(=N/[N+](=O)[O-])NCc1cnc(Cl)c(Cl)c1` displayed a melting point of 173 to 174 °C.
